Values joined by “and” are separate entries in the source; they are usually repeats but may differ in a detail not shown here. Identical values can stand only once.
Assays:
Assay in all cases: radiometric filter-binding kinase assay, Kinase HotSpot
Details in all cases: compound 0.5 µM; ATP 10 µM
CDK6 CCND1 (human) = CDK6 CCND1 (human) (UniProt Q00534+P24385)
LYN (human) = LYN (human) (UniProt P07948)
EPHA1 (human) = EPHA1 (human) (UniProt P21709)
DMPK (human) = DMPK (human) (UniProt Q09013)
FYN (human) = FYN (human) (UniProt P06241)
STK16 (human) = STK16 (human) (UniProt O75716)
SYK (human) = SYK (human) (UniProt P43405)
BMX (human) = BMX (human) (UniProt P51813)
DCLK2 (human) = DCLK2 (human) (UniProt Q8N568)
PRKCD (human) = PRKCD (human) (UniProt Q05655)
TSSK2 (human) = TSSK2 (human) (UniProt Q96PF2)
PRKG1 (human) = PRKG1 (human) (UniProt Q13976)
NEK4 (human) = NEK4 (human) (UniProt P51957)
EGFR (human) = EGFR (human) (UniProt P00533)
GRK6 (human) = GRK6 (human) (UniProt P43250)
STK17A (human) = STK17A (human) (UniProt Q9UEE5)
NEK11 (human) = NEK11 (human) (UniProt Q8NG66)
AXL (human) = AXL (human) (UniProt P30530)
STK33 (human) = STK33 (human) (UniProt Q9BYT3)
CDK2 CCNE1 (human) = CDK2 CCNE1 (human) (UniProt P24941+P24864)
GSG2 (human) = GSG2 (human) (UniProt Q8TF76)
TSSK1B (human) = TSSK1B (human) (UniProt Q9BXA7)
PRKCH (human) = PRKCH (human) (UniProt P24723)
MAP4K4 (human) = MAP4K4 (human) (UniProt O95819)
MAP3K7 TAB1 (human) = MAP3K7 TAB1 (human) (UniProt O43318+Q15750)
ZAP70 (human) = ZAP70 (human) (UniProt P43403)
MARK3 (human) = MARK3 (human) (UniProt P27448)
TAOK2 (human) = TAOK2 (human) (UniProt Q9UL54)
IRAK1 (human) = IRAK1 (human) (UniProt P51617)
EPHA7 (human) = EPHA7 (human) (UniProt Q15375)
MARK2 (human) = MARK2 (human) (UniProt Q7KZI7)
RAF1 (human) = RAF1 (human) (UniProt P04049)
PIM1 (human) = PIM1 (human) (UniProt P11309)
MAP3K2 (human) = MAP3K2 (human) (UniProt Q9Y2U5)
PRKCI (human) = PRKCI (human) (UniProt P41743)
CAMKK2 (human) = CAMKK2 (human) (UniProt Q96RR4)
PASK (human) = PASK (human) (UniProt Q96RG2)
BRSK1 (human) = BRSK1 (human) (UniProt Q8TDC3)
CSNK1D (human) = CSNK1D (human) (UniProt P48730)
ADRBK1 (human) = ADRBK1 (human) (UniProt P25098)
MAP2K2 (human) = MAP2K2 (human) (UniProt P36507)
OXSR1 (human) = OXSR1 (human) (UniProt O95747)

PRKG1 (human), sequence (Q13976 whole entry, looked up): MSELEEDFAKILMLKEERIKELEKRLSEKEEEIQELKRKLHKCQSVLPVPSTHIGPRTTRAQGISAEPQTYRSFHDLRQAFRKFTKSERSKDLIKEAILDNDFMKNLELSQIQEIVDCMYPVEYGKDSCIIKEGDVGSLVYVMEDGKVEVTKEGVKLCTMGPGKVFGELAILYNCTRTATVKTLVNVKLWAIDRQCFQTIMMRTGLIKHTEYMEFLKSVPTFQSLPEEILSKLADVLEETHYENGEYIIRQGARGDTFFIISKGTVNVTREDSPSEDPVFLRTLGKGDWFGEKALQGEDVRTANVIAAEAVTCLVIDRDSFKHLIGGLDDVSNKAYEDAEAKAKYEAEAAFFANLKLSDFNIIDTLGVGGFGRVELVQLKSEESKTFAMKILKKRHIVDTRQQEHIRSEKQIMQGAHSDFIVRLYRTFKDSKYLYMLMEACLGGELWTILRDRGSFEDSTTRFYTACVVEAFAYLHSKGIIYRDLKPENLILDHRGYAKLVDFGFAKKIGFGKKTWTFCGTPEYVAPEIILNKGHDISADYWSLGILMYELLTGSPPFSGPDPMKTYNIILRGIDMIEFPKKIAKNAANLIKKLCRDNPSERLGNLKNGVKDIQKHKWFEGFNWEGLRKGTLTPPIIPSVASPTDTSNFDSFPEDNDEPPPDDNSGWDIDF
LYN (human), sequence (P07948 whole entry, looked up): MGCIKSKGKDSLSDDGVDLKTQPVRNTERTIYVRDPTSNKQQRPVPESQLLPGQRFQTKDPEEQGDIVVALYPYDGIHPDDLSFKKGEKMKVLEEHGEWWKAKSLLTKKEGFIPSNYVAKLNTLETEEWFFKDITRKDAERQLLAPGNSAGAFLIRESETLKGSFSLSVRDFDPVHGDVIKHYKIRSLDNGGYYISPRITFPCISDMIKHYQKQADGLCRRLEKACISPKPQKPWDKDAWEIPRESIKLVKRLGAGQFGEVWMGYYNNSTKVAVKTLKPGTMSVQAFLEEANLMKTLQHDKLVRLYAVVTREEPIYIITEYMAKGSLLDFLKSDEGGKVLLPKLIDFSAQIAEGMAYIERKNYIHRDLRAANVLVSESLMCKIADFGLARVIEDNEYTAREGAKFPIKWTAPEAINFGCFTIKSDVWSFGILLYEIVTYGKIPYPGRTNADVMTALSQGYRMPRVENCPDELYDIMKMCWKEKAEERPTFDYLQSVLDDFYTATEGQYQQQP
CDK6 CCND1 (human), sequence (P24385 whole entry, looked up): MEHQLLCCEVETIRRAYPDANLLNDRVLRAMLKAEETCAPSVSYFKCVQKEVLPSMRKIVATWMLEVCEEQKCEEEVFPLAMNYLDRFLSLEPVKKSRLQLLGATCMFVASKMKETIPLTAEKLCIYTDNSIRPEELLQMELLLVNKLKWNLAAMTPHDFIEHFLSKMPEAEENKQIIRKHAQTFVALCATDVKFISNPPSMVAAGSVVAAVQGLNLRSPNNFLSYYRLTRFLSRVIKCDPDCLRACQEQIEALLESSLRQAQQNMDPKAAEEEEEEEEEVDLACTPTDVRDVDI
CDK6 CCND1 (human), sequence (Q00534 whole entry, looked up): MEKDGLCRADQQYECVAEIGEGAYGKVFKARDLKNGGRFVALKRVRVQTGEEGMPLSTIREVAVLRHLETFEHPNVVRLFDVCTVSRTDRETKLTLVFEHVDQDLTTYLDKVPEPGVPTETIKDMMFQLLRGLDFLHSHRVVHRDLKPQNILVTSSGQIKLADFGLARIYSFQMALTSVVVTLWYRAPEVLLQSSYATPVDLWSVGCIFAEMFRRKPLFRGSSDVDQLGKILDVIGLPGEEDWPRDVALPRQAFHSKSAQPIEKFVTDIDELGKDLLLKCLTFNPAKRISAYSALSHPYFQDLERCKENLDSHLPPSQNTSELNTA
STK17A (human), sequence (Q9UEE5 whole entry, looked up): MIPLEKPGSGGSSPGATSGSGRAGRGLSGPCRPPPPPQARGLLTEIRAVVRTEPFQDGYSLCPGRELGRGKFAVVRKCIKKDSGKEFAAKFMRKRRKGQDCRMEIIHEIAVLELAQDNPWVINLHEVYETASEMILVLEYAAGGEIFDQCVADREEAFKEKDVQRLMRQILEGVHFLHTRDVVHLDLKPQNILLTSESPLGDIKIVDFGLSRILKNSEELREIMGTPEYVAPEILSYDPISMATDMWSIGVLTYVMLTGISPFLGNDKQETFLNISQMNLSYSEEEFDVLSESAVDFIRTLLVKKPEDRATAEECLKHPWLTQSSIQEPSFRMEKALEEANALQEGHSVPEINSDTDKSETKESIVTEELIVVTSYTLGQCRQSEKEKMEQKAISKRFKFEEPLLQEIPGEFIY
TSSK2 (human), sequence (Q96PF2 whole entry, looked up): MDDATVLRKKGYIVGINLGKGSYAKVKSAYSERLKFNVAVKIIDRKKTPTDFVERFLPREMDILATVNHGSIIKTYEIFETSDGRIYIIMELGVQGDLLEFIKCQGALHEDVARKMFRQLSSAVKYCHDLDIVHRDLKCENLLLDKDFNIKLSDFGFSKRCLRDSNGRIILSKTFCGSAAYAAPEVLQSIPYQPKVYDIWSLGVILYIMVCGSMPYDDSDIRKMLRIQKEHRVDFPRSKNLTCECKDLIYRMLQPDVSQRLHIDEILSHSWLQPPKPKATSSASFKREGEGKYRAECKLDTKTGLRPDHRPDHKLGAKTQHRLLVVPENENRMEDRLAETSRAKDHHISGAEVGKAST
ADRBK1 (human), sequence (P25098 whole entry, looked up): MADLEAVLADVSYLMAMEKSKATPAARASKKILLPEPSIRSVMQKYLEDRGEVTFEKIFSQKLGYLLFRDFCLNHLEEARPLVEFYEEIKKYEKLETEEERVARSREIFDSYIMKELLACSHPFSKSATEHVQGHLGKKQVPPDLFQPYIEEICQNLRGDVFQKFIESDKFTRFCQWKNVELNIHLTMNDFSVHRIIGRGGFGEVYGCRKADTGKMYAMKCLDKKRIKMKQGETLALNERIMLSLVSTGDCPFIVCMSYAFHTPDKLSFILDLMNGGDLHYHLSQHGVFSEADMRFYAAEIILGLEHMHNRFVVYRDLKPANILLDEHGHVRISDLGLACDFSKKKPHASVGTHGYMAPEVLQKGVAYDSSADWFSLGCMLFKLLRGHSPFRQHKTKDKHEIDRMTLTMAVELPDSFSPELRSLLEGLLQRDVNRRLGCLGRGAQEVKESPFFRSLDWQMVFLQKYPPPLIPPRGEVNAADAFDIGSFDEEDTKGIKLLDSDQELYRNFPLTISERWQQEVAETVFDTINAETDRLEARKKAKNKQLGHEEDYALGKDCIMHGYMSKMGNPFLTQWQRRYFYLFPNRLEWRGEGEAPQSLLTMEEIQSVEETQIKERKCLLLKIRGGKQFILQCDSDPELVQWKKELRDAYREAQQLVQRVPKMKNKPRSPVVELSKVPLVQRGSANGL
MARK2 (human), sequence (Q7KZI7 whole entry, looked up): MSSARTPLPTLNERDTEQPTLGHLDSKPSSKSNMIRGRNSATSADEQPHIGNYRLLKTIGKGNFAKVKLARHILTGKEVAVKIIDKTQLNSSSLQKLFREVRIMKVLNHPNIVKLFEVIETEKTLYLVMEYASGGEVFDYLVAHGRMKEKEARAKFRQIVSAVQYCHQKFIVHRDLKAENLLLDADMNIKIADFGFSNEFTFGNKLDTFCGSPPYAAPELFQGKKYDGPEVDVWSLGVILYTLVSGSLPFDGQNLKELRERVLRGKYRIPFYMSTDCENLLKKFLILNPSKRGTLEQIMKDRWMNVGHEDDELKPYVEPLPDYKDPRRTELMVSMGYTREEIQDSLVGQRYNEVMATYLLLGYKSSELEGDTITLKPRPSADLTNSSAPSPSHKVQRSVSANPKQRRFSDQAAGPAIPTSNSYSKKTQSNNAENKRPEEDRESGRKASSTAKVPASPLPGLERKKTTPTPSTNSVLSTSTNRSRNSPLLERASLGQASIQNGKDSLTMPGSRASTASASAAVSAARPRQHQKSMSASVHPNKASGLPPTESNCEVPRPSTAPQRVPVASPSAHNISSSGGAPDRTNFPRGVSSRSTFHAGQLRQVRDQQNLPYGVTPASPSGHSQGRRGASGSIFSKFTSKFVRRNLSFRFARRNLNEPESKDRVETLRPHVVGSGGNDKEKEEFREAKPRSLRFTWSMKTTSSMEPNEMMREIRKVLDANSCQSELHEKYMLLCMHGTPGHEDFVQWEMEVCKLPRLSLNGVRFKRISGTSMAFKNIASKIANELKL
GSG2 (human), sequence (Q8TF76 whole entry, looked up): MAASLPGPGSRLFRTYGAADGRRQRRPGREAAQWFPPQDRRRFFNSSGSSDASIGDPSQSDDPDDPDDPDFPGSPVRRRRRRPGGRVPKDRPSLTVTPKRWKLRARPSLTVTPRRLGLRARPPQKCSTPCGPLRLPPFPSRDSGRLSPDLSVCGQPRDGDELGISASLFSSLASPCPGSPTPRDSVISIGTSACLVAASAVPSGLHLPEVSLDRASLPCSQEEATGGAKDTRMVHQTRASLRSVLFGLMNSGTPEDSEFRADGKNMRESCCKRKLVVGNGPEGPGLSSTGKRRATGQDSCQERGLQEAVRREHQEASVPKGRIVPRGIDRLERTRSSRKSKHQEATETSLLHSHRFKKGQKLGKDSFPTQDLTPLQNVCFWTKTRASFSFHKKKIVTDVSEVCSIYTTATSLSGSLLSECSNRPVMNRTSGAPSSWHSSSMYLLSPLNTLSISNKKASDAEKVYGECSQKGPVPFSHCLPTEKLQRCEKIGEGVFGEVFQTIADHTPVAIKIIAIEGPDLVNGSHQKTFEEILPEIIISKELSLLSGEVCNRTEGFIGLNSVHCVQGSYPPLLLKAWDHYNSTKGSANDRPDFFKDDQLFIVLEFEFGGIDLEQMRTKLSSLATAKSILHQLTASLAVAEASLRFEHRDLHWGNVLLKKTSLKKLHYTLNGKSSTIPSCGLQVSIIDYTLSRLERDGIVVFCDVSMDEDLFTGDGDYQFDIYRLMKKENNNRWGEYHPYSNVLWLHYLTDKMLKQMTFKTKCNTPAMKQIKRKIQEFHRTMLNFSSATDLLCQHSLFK

## Nc1nccc(-c2c(-c3ccc(F)cc3)ncn2C2CCNCC2)n1
CDK6 CCND1 (human)
  residual activity: 101%
LYN (human)
  residual activity: 87.5% and 97.5%
EPHA1 (human)
  residual activity: 98.2%
DMPK (human)
  residual activity: 99.3%
FYN (human)
  residual activity: 91.1%
STK16 (human)
  residual activity: 108%
SYK (human)
  residual activity: 98%
BMX (human)
  residual activity: 92.9%
DCLK2 (human)
  residual activity: 99.9%
PRKCD (human)
  residual activity: 99.8%
TSSK2 (human)
  residual activity: 100%
PRKG1 (human)
  residual activity: 88.2% and 97.7%
NEK4 (human)
  residual activity: 99.5%
EGFR (human)
  residual activity: 94.4%
GRK6 (human)
  residual activity: 98.2%
STK17A (human)
  residual activity: 97.8%
NEK11 (human)
  residual activity: 105%
AXL (human)
  residual activity: 102%
STK33 (human)
  residual activity: 98.6%
CDK2 CCNE1 (human)
  residual activity: 92.1%
GSG2 (human)
  residual activity: 91.4%
TSSK1B (human)
  residual activity: 106%
PRKCH (human)
  residual activity: 91.9%
MAP4K4 (human)
  residual activity: 76.3%
MAP3K7 TAB1 (human)
  residual activity: 96.9%
ZAP70 (human)
  residual activity: 92.3%
MARK3 (human)
  residual activity: 103%
TAOK2 (human)
  residual activity: 98%
IRAK1 (human)
  residual activity: 114%
EPHA7 (human)
  residual activity: 94%
MARK2 (human)
  residual activity: 97%
RAF1 (human)
  residual activity: 90.9%
PIM1 (human)
  residual activity: 97%
MAP3K2 (human)
  residual activity: 94%
PRKCI (human)
  residual activity: 98.5%
CAMKK2 (human)
  residual activity: 110%
PASK (human)
  residual activity: 98.5%
BRSK1 (human)
  residual activity: 99.7%
CSNK1D (human)
  residual activity: 1.25%
ADRBK1 (human)
  residual activity: 99.7%
MAP2K2 (human)
  residual activity: 105%
OXSR1 (human)
  residual activity: 101%

## O=C1Nc2ccccc2/C1=C1/Nc2ccccc2/C1=N\OCCC(O)CO (centres undefined)
CDK6 CCND1 (human)
  residual activity: 27.7%
LYN (human)
  residual activity: 25.4% and 45.5%
EPHA1 (human)
  residual activity: 82.2%
DMPK (human)
  residual activity: 99.5%
FYN (human)
  residual activity: 13%
STK16 (human)
  residual activity: 12.7%
SYK (human)
  residual activity: 38.6%
BMX (human)
  residual activity: 40.2%
DCLK2 (human)
  residual activity: 86.4%
PRKCD (human)
  residual activity: 80.6%
TSSK2 (human)
  residual activity: 96.2%
PRKG1 (human)
  residual activity: 45.1% and 53%
NEK4 (human)
  residual activity: 83.9%
EGFR (human)
  residual activity: 88.1%
GRK6 (human)
  residual activity: 53.1%
STK17A (human)
  residual activity: 22.5%
NEK11 (human)
  residual activity: 92.3%
AXL (human)
  residual activity: 42.7%
STK33 (human)
  residual activity: 22.3%
CDK2 CCNE1 (human)
  residual activity: 23.1%
GSG2 (human)
  residual activity: 32.8%
TSSK1B (human)
  residual activity: 76.6%
PRKCH (human)
  residual activity: 82.2%
MAP4K4 (human)
  residual activity: 11.6%
MAP3K7 TAB1 (human)
  residual activity: 50.5%
ZAP70 (human)
  residual activity: 97.8%
MARK3 (human)
  residual activity: 75.2%
TAOK2 (human)
  residual activity: 83.4%
IRAK1 (human)
  residual activity: 34.5%
EPHA7 (human)
  residual activity: 71.4%
MARK2 (human)
  residual activity: 57.4%
RAF1 (human)
  residual activity: 100%
PIM1 (human)
  residual activity: 59.7%
MAP3K2 (human)
  residual activity: 60.6%
PRKCI (human)
  residual activity: 100%
CAMKK2 (human)
  residual activity: 26%
PASK (human)
  residual activity: 89.8%
BRSK1 (human)
  residual activity: 39.5%
CSNK1D (human)
  residual activity: 52.9%
ADRBK1 (human)
  residual activity: 101%
MAP2K2 (human)
  residual activity: 86.5%
OXSR1 (human)
  residual activity: 98.6%

From the kinase profiling compilation of Christmann-Franck et al. (2016)
